Measured values taken from patent US20190365927A1, “COMPOSITION FOR PHOTODYNAMIC THERAPY USING GENE EXPRESSING FLUORESCENT PROTEIN AND PHOTOSENSITIZER, AND PHOTODYNAMIC THERAPY METHOD USING SAME” (priority 2017, published 2019).

Tested on: eGFP+ 4T1 cells
Experiment: In vitro PDT with rose bengal and blue laser light, MTT analysis
Type: cell-based
Experimental: The photo inducing death of GFP− and GFP+ cells after blue light irradiation was measured by MTT analysis in the presence or absence of rose bengal (RB). The specific experimental procedure is as follows.
RB was diluted with DMEM containing 10% FBS to produce RB at concentrations of 6.25, 12.5, 25, 50, and 100 μM. GFP− and GFP+ cells were pre-incubated in 96-well, black, and clear bottom plates at a density of 2×10^4 cells per well. Then cells were incubated with RB for 4 hours. The addition of a fresh culture medium without photosensitizer to the wells was performed. This was used as an untreated control. Cells were washed 3 times with PBS buffer.
In the PDT-treated group, the cell was irradiated with blue laser light (473 nm, radiation dose rate=80 mW/cm^2) for 1 to 60 seconds. The toxicity of pure RB on GFP+ and GFP− cells was measured in the dark room. After the irradiation, the fresh culture medium was added to the wells, and cells were cultured again for 24 hours. The medium was then measured by MTT assay. 150 μL of solubilizing solution and stop solution were added thereto, followed by incubation at 37° C. for 4 hours. The absorbance of the reaction solution was measured at 570 nm. Cell viability was calculated by the following equation:
(ODtreated/ODcontrol)×100%.
Each experiment was performed independently. Cell death was measured by LDH analysis.
Th cells were seeded on a 24-well plate at a density of 5×10^4 per well. After the photosensitizer treatment thereto, blue light was irradiated thereto as described above. Each culture medium was prepared. For LDH analysis, LDH Cytotoxicity Assay kit (Cayman Chemical Company, Ann Arbor, Mich., USA) was used according to the producer protocol. 100 μL of the supernatant of the cultured cells was transferred from the well to a corresponding well of the new plate, and then 100 μL of the reaction solution was added to each well. The plates were incubated for 30 minutes at room temperature while executing gentle shaking thereof with an orbital shaker. The absorbance was measured at 490 nm using a plate reader.

O=C1OC2(c3cc(I)c(O)c(I)c3Oc3c2cc(I)c(O)c3I)c2c(Cl)c(Cl)c(Cl)c(Cl)c21 [RB, rose bengal]
selective cell death of eGFP+ versus eGFP− 4T1 cells (blue laser light (473 nm), FIG. 1B): the cells selectively died
eGFP+ cells selectively killed (exposed to 473 nm laser light after RB treatment, FIG. 2A): ~60%
cytotoxicity, eGFP+ versus eGFP− cells (extremely high concentrations of RB and extremely long exposure time, FIG. 2C): a similar level of cytotoxicity was observed between eGFP+ and eGFP− cells
cell death percentage, eGFP+ versus eGFP− cells (higher RB concentration and longer exposure time, FIG. 2C): cell death percentage of eGFP+ cells was higher than that of eGFP− cells
